Measurements: patent US20110045101A1, “FUNGICIDAL SUBSTITUTED AZOLES” (E.I. Du Pont De Nemours and Company, priority 2009, published 2011)
Marks after values point to notes of the source that are not given here.

How the values were obtained:
Format in all cases: in vivo
Settings in all cases: 100 = 100% disease control
[1] = system: Erysiphe graminis f. sp. tritici; test: Test J: wheat powdery mildew on wheat seedlings, sprayed the day before inoculation, visual disease rating
Excerpt: (§1) General protocol for preparing test suspensions for Tests A-J: The test compounds were first dissolved in acetone in an amount equal to 3% of the final volume and then suspended at the desired concentration (in ppm) in acetone and purified water (50/50 mix) containing 250 ppm of the surfactant Trem® 014 (polyhydric alcohol esters). The resulting test suspensions were then used in tests A-J. Spraying a 200 ppm test suspension to the point of run-off on the test plants was the equivalent of a rate of 500 g/ha. […] The test suspension was sprayed to the point of run-off on wheat seedlings. […] A dash (-) indicates no test results. All results are for 200 ppm except where followed by “*”, which indicates 40 ppm.

[2] = system: Septoria tritici; test: Test G: wheat leaf blotch on wheat seedlings, sprayed the day before inoculation, visual disease rating
Excerpt: General protocol for preparing test suspensions for Tests A-J: The test compounds were first dissolved in acetone in an amount equal to 3% of the final volume and then suspended at the desired concentration (in ppm) in acetone and purified water (50/50 mix) containing 250 ppm of the surfactant Trem® 014 (polyhydric alcohol esters). The resulting test suspensions were then used in tests A-J. Spraying a 200 ppm test suspension to the point of run-off on the test plants was the equivalent of a rate of 500 g/ha. […] The test suspension was sprayed to the point of run-off on wheat seedlings. The following day the seedlings were inoculated with a spore suspension of Septoria tritici (the causal agent of wheat leaf blotch) and incubated in saturated atmosphere at 24° C. for 48 h, and then moved to a growth chamber at 20° C. for 19 days, after which time visual disease ratings were made. […] A dash (-) indicates no test results. All results are for 200 ppm except where followed by “*”, which indicates 40 ppm.

[3] = system: Alternaria solani; test: Test D: tomato early blight, sprayed the day before inoculation, visual disease rating
Excerpt: as §1

[4] = system: Botrytis cinerea; test: Test C: tomato Botrytis on tomato seedlings, sprayed the day before inoculation, visual disease rating
Excerpt: General protocol for preparing test suspensions for Tests A-J: The test compounds were first dissolved in acetone in an amount equal to 3% of the final volume and then suspended at the desired concentration (in ppm) in acetone and purified water (50/50 mix) containing 250 ppm of the surfactant Trem® 014 (polyhydric alcohol esters). The resulting test suspensions were then used in tests A-J. Spraying a 200 ppm test suspension to the point of run-off on the test plants was the equivalent of a rate of 500 g/ha. […] The test suspension was sprayed to the point of run-off on tomato seedlings. […] A dash (-) indicates no test results. All results are for 200 ppm except where followed by “*”, which indicates 40 ppm.

[5] = system: Puccinia recondita f. sp. tritici; test: Test I: wheat leaf rust on wheat seedlings, sprayed the day before inoculation, visual disease rating
Excerpt: as §1

[6] = system: Septoria nodorum; test: Test F: wheat glume blotch on wheat seedlings, sprayed the day before inoculation, visual disease rating
Excerpt: as §1

[7] = 200 ppm, 0 = no control relative to controls

With `Cc1nc(Cl)c(-c2c(F)cccc2Cl)n1-c1ccc(Cl)cc1` [compound 53] the “Test J disease control rating” value [1, 7] was 99%, the “Test G disease control rating” value [2, 7] was 95% and the “Test D disease control rating” value [3, 7] was 100%. The “Test C disease control rating” value [4, 7] was 89%, the “Test I disease control rating” value [5, 7] was 100% and the “Test F disease control rating” value [6, 7] was 0%.

For `Fc1cc(F)cc(-n2c(Br)nc(Cl)c2-c2c(F)cccc2F)c1` [compound 54], the “Test J disease control rating” value [1, 7] was 91%, the “Test G disease control rating” value [2, 7] was 87% and the “Test D disease control rating” value [3, 7] was 24%. For the same molecule, the “Test C disease control rating” value [4, 7] was 92%, the “Test I disease control rating” value [5, 7] was 99% and the “Test F disease control rating” value [6, 7] was 0%.

In the case of `COc1cc(F)c(-c2c(C)nc(C)n2-c2ccc(Cl)cc2)c(F)c1` [compound 55], the “Test J disease control rating” value ([1]; 40 ppm (marked *)) was 100* %, the “Test G disease control rating” value ([2]; 40 ppm (marked *)) was 93* % and the “Test D disease control rating” value ([3]; 40 ppm (marked *)) was 100* %. The “Test C disease control rating” value ([4]; 40 ppm (marked *)) was 94* %, the “Test I disease control rating” value ([5]; 40 ppm (marked *)) was 99* % and the “Test F disease control rating” value ([6]; 40 ppm (marked *)) was 98* %.

With `COc1cc(F)c(-c2c(C)ncn2-c2ccc(Cl)cc2)c(F)c1` [compound 56] the “Test J disease control rating” value [1, 7] was 99%, the “Test G disease control rating” value ([2]; 40 ppm (marked *)) was 96* % and the “Test D disease control rating” value ([3]; 40 ppm (marked *)) was 100* %. The “Test C disease control rating” value ([4]; 40 ppm (marked *)) was 96* %, the “Test I disease control rating” value ([5]; 40 ppm (marked *)) was 94* % and the “Test F disease control rating” value ([6]; 40 ppm (marked *)) was 60* %.

`Fc1ccccc1-n1c(Br)nc(Cl)c1-c1c(F)cccc1F` [compound 58] was tested, and the “Test J disease control rating” value [1, 7] was 100%, the “Test G disease control rating” value [2, 7] was 79% and the “Test D disease control rating” value [3, 7] was 100%. The “Test C disease control rating” value [4, 7] was 98%, the “Test I disease control rating” value [5, 7] was 99% and the “Test F disease control rating” value [6, 7] was 51%.

In the case of `COc1cc(F)c(-c2c(Br)nc(C)n2-c2ccc(Cl)cc2)c(F)c1C` [compound 59], the “Test J disease control rating” value ([1]; 40 ppm (marked *)) was 97* %, the “Test G disease control rating” value ([2]; 40 ppm (marked *)) was 97* % and the “Test D disease control rating” value ([3]; 40 ppm (marked *)) was 100* %. The “Test C disease control rating” value ([4]; 40 ppm (marked *)) was 93* %, the “Test I disease control rating” value ([5]; 40 ppm (marked *)) was 86* % and the “Test F disease control rating” value ([6]; 40 ppm (marked *)) was 82* %.

In the case of `Cc1nn(C)c(-c2c(F)cccc2Cl)c1-c1ccc(Cl)cc1` [compound 61], the “Test J disease control rating” value [1, 7] was 99%, the “Test G disease control rating” value [2, 7] was 60% and the “Test D disease control rating” value [3, 7] was 0%. For the same molecule, the “Test C disease control rating” value [4, 7] was 40%, the “Test I disease control rating” value [5, 7] was 92% and the “Test F disease control rating” value [6, 7] was 0%.

For `Cc1nn(C)c(-c2c(F)cccc2Cl)c1-c1cccc(F)c1` [compound 62], the “Test J disease control rating” value [1, 7] was 81%, the “Test G disease control rating” value [2, 7] was 5% and the “Test D disease control rating” value [3, 7] was 0%. The “Test C disease control rating” value [4, 7] was 94%, the “Test I disease control rating” value [5, 7] was 0% and the “Test F disease control rating” value [6, 7] was 0%.

For `Cc1nn(C)c(-c2c(F)cccc2Cl)c1-c1ccc(Cl)c(F)c1` [compound 63], the “Test J disease control rating” value [1, 7] was 100%, the “Test G disease control rating” value [2, 7] was 33% and the “Test D disease control rating” value [3, 7] was 0%. The “Test C disease control rating” value [4, 7] was 0%, the “Test I disease control rating” value [5, 7] was 41% and the “Test F disease control rating” value [6, 7] was 0%.

With `Cc1nc(Cl)c(-c2c(F)cccc2F)n1-c1ccccc1F` [compound 64] the “Test J disease control rating” value [1, 7] was 96%, the “Test G disease control rating” value [2, 7] was 95% and the “Test D disease control rating” value [3, 7] was 100%. The “Test C disease control rating” value [4, 7] was 99%, the “Test I disease control rating” value [5, 7] was 100% and the “Test F disease control rating” value [6, 7] was 95%.

For `Fc1cccc(F)c1-c1c(Cl)nc(Br)n1-c1ccc(Br)cc1` [compound 66], the “Test J disease control rating” value [1, 7] was 99%, the “Test G disease control rating” value [2, 7] was 94% and the “Test D disease control rating” value [3, 7] was 100%. For the same molecule, the “Test C disease control rating” value [4, 7] was 99%, the “Test I disease control rating” value [5, 7] was 99% and the “Test F disease control rating” value [6, 7] was 99%.

In the case of `Cc1nn(C)c(-c2c(F)cccc2F)c1-c1ccc(Cl)c(F)c1` [compound 68], the “Test J disease control rating” value [1, 7] was 99%, the “Test G disease control rating” value [2, 7] was 40% and the “Test D disease control rating” value [3, 7] was 0%. For the same molecule, the “Test C disease control rating” value [4, 7] was 0%, the “Test I disease control rating” value [5, 7] was 9% and the “Test F disease control rating” value [6, 7] was 0%.

In the case of `Cc1nn(C)c(-c2c(F)cc(F)cc2F)c1-c1ccc(Cl)cc1` [compound 69], the “Test J disease control rating” value [1, 7] was 97%, the “Test G disease control rating” value [2, 7] was 25% and the “Test D disease control rating” value [3, 7] was 99%. For the same molecule, the “Test C disease control rating” value [4, 7] was 74%, the “Test I disease control rating” value [5, 7] was 0% and the “Test F disease control rating” value [6, 7] was 0%.

In the case of `Cc1nn(C)c(-c2c(F)cc(F)cc2F)c1-c1cccc(F)c1` [compound 70], the “Test J disease control rating” value [1, 7] was 0%, the “Test G disease control rating” value [2, 7] was 0% and the “Test D disease control rating” value [3, 7] was 0%. The “Test C disease control rating” value [4, 7] was 71%, the “Test I disease control rating” value [5, 7] was 0% and the “Test F disease control rating” value [6, 7] was 0%.

For `Cc1nn(C)c(-c2c(F)cc(F)cc2F)c1-c1ccc(Cl)c(F)c1` [compound 71], the “Test J disease control rating” value [1, 7] was 56%, the “Test G disease control rating” value [2, 7] was 2% and the “Test D disease control rating” value [3, 7] was 33%. For the same molecule, the “Test C disease control rating” value [4, 7] was 47%, the “Test I disease control rating” value [5, 7] was 9% and the “Test F disease control rating” value [6, 7] was 0%.

For `Fc1ccc(-n2c(Br)nc(Cl)c2-c2c(F)cccc2F)cc1` [compound 72], the “Test J disease control rating” value [1, 7] was 100%, the “Test G disease control rating” value [2, 7] was 97% and the “Test D disease control rating” value [3, 7] was 100%. For the same molecule, the “Test C disease control rating” value [4, 7] was 96%, the “Test I disease control rating” value [5, 7] was 99% and the “Test F disease control rating” value [6, 7] was 92%.

With `Cc1nc(Cl)c(-c2c(F)cccc2F)n1-c1cc(F)cc(F)c1` [compound 73] the “Test J disease control rating” value [1, 7] was 100%, the “Test G disease control rating” value [2, 7] was 87% and the “Test D disease control rating” value [3, 7] was 100%. The “Test C disease control rating” value [4, 7] was 100%, the “Test I disease control rating” value [5, 7] was 100% and the “Test F disease control rating” value [6, 7] was 60%.

For `Fc1ccc(F)c(-c2c(Cl)ncn2-c2ccc(Cl)cc2)c1Cl` [compound 74], the “Test J disease control rating” value [1, 7] was 99%, the “Test G disease control rating” value [2, 7] was 98% and the “Test D disease control rating” value [3, 7] was 96%. For the same molecule, the “Test C disease control rating” value [4, 7] was 98%, the “Test I disease control rating” value [5, 7] was 99% and the “Test F disease control rating” value [6, 7] was 31%.

In the case of `Fc1ccc(Br)c(F)c1-c1c(Cl)ncn1-c1ccc(Cl)cc1` [compound 75], the “Test J disease control rating” value [1, 7] was 98%, the “Test G disease control rating” value [2, 7] was 95% and the “Test D disease control rating” value [3, 7] was 93%. The “Test C disease control rating” value [4, 7] was 98%, the “Test I disease control rating” value [5, 7] was 77% and the “Test F disease control rating” value [6, 7] was 0%.

`Fc1ccc(F)c(-c2c(Cl)nc(Br)n2-c2ccc(Cl)cc2)c1Cl` [compound 76] was tested, and the “Test J disease control rating” value [1, 7] was 100%, the “Test G disease control rating” value [2, 7] was 97% and the “Test D disease control rating” value [3, 7] was 99%. The “Test C disease control rating” value [4, 7] was 37%, the “Test I disease control rating” value [5, 7] was 99% and the “Test F disease control rating” value [6, 7] was 60%.

With `COc1cc(F)c(-c2c(-c3ccc(Cl)cc3)c(C)nn2C)c(F)c1` [compound 77] the “Test J disease control rating” value [1, 7] was 100%, the “Test G disease control rating” value [2, 7] was 97% and the “Test D disease control rating” value [3, 7] was 100%. The “Test C disease control rating” value [4, 7] was 98%, the “Test I disease control rating” value [5, 7] was 99% and the “Test F disease control rating” value [6, 7] was 82%.
